Experimental data: patent publication US20090298902A1, “PESTICIDE COMPOSITIONS FOR COMBATING ARTHROPOD PESTS, SNAILS AND NEMATODES” (priority 2006, published 2009)

System: workers of the eastern subterranean termite, Reticulitermes flavipes
Assay: Test example 4: soil incorporation bioassay with compound P5a formulations
Assay type: in vivo
Details: 24 h, 1 DAT, read-out: Mean cumulative % mortality at days after treatment (DAT)
Description: Bioassays were conducted in 60×15 mm Petri dishes with a 1% agar layer for moisture and 15 termite workers per dish. Granular formulations were incorporated into the Princeton sandy loam soil by hand shaking and mixing with use of a commercial jar roller. After incorporation, water was added to field capacity, and the soil was rolled again. The soil was allowed to sit at field capacity overnight. The soil was then air dried for 24 hours prior to introduction into the test dishes. Conventional suspension concentrate of fipronil was used as a standard, and untreated soil used as a control. Test dishes were maintained at approximately 26° C. and 85% RH. Dishes were observed daily for 13 days for mortality. The concentration of active ingredient was 0.0004875% (w/w) in trench.
Test example 4 was performed similar to test example 1, using formulations containing compound P5a. Comparison of a superabsorber formulation of compound P5 to a DC formulation of compound P5 for bioactivity against workers of the eastern subterranean termite, Reticulitermes flavipes, via soil (Princeton sandy loam) incorporation;

CCN/C(=N\Nc1c(Cl)cc(C(F)(F)F)cc1Cl)C1(C)CC1(Cl)Cl (centres unmarked) [Compound P5a]
mortality at 10 ppm (Rate 10 ppm): 100% | mortality at 100 ppm (Rate 100 ppm): 100%
